Where two headings read alike, the source gives them in different places.
Tests used:
Format in all cases: cell-based
[1] = target: Histone H3.3/CBP-BD Interaction (Homo sapiens, UniProt Q92793); assay: NanoBRET cellular assay (Histone H3.3/CBP-BD Interaction Assay)
VCaP cells = assay: VCaP growth inhibition assay; details: 30 pM R1881, 9 days, CTG
Outline: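 VCaP cells in phenol red-free DMEM/5% CSS, pre-incubated 72 h, then stimulated with R1881 (final 30 pM) and treated with 1:5 serial dilutions (final 100 nM to 10 fM) for 9 days at 37 °C. Viability by CellTiter-Glo luminescence; IC50 from 4-parameter logistic fit of RLU vs concentration.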

AR / CBP ternary complex = assay: Ternary complex formation assay (sandwich ELISA, AR capture / CBP detection) in VCaP cell lysates; details: 1.5 hours treatment, sandwich ELISA (AR capture, CBP or p300 detection)
Outline: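 VCaP cells (50K/well, 5% charcoal-stripped FBS, ≥3 days) treated with bifunctional compound for 1.5 h, then lysed 30 min at 4 °C. AR captured on anti-AR (AR 441) plates; bound CBP or p300 detected by rabbit mAb plus HRP secondary. QuantaRed chemifluorescence read at ex 570/em 585, immediately and at 5 and 15 min.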

HEK-293 cells = assay: HEK-293 growth inhibition assay; details: 3 days, CTG
Outline: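 HEK-293 cells plated 24 hours before compound treatment, then exposed for 3 days at 37°C/5% CO2. Viability by CellTiter-Glo luminescence after 20 minutes at room temperature. IC50 from RLU versus concentration via 4-parameter logistic nonlinear regression.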

Chain of Histone H3.3/CBP-BD Interaction (Q92793 1085-1192 limits assumed): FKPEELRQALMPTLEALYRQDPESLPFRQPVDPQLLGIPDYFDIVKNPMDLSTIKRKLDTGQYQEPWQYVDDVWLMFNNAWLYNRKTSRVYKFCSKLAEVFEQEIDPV

Row | IC50 (VCaP cells) [nM] | EC50 (AR / CBP ternary complex) [nM] | SMILES | IC50 ([1]; HEK293 cells transfected with Histone H3.3-HaloTag and CBP-BD-NanoLuc, 22 hours treatment, test compounds starting at 1 uM, SGC-CBP-30 starting at 10 uM, 10-dose with 3-fold dilution) [nM] | IC50 [1] [nM] | IC50 (HEK-293 cells) [nM]
1 |  |  | CNC(=O)N1CCc2c(c(N3CCCc4cc(-c5cnn(C)c5)c(C(F)F)cc43)nn2C2CCOCC2)C1 [GNE-781, reference compound] | 0.123 |  | 
2 | 0.1 to 1 | < 1 | CC(=O)N1CCc2c(c(-c3cccc4cc(-c5ccc(OCc6ncc(C(=O)NC7C(C)(C)C(Oc8ccc(C#N)c(Cl)c8)C7(C)C)cn6)nc5)ncc34)nn2C2CCOCC2)C1 (centres unmarked) [Compound 72, 2-[[5-[8-(5-acetyl-1-tetrahydropyran-4-yl-6,7-dihydro-4H-pyrazolo[4,3-c]pyridin-3-yl)-3-isoquinolyl]-2-pyridyl]oxymethyl]-N-[3-(3-chloro-4-cyano-phenoxy)-2,2,4,4-tetramethyl-cyclobutyl]pyrimidine-5-carboxamide] |  |  | > 10000
3 | > 100 | < 1 | CNC(=O)N1CCc2c(c(N3CCCc4cc(-c5cnn(C)c5)c(C(F)F)cc43)nn2C2CCN(CCc3ncc(C(=O)NC4C(C)(C)C(Oc5ccc(C#N)c(Cl)c5)C4(C)C)cn3)CC2)C1 (centres unmarked) [Compound 90, 1-[1-[2-[5-[[3-(3-chloro-4-cyano-phenoxy)-2,2,4,4-tetramethyl-cyclobutyl]carbamoyl]pyrimidin-2-yl]ethyl]-4-piperidyl]-3-[7-(difluoromethyl)-6-(1-methylpyrazol-4-yl)-3,4-dihydro-2H-quinolin-1-yl]-N-methyl-6,7-dihydro-4H-pyrazolo[4,3-c]pyridine-5-carboxamide] |  |  | 2160

Row | SMILES | IC50 (VCaP cells) [nM] | EC50 (AR / CBP ternary complex) [nM] | IC50 ([1]; HEK293 cells transfected with Histone H3.3-HaloTag and CBP-BD-NanoLuc, 22 hours treatment, test compounds starting at 1 uM, SGC-CBP-30 starting at 10 uM, 10-dose with 3-fold dilution) [nM] | IC50 [1] [nM] | IC50 (HEK-293 cells) [nM]
4 | CNC(=O)N1CCc2c(c(N3CCCc4cc(-c5cnn(C)c5)c(C(F)F)cc43)nn2C2CCN(C(=O)CN3CCN(c4ncc(C(=O)NC5C(C)(C)C(Oc6ccc(C#N)c(Cl)c6)C5(C)C)cn4)CC3)CC2)C1 (centres unmarked) [Compound 109, 1-[1-[2-[4-[5-[[3-(3-chloro-4-cyano-phenoxy)-2,2,4,4-tetramethyl-cyclobutyl]carbamoyl]pyrimidin-2-yl]piperazin-1-yl]acetyl]-4-piperidyl]-3-[7-(difluoromethyl)-6-(1-methylpyrazol-4-yl)-3,4-dihydro-2H-quinolin-1-yl]-N-methyl-6,7-dihydro-4H-pyrazolo[4,3-c]pyridine-5-carboxamide] | ≤ 0.1 | < 1 |  | > 1000 | > 10000
